Measurements as given in US20090227674A1, “Combination methods fo saha and targretin for treating cancer” (priority 2005, published 2009).

Test system: HH cells (CTCL cells; ATCC)
Test: ViaLight Plus viability/proliferation assay, Vorinostat and Targretin combination
Assay type: cell-based
Experimental: Data from these assays was used to determine the range of combination concentrations. Both compounds were combined at concentrations close to their IC50 values. Subsequent combination viability/proliferation assays were performed using the ViaLight Plus protocol.
Costar white with clear bottom 96 well plates (#3603) were seeded with 25,000 cells per well in a volume of 100 μL/well of growth media for each time point. HH cell line growth media included RPMI (GIBCO #) with 10% FBS (GIBCO # SV30014.03), 1% Glutamax (GIBCO # 35050-061), and 1% Penicillin/Streptomycin (GIBCO # 30-002). […] For the fixed ratio method, compounds were combined and diluted together serially. […] For each treatment concentration, 25 μL of the appropriate dilution for each compound was added to the corresponding wells. Wells on the outer perimeter of the plate were not used. At each time-point, plates were read using the ViaLight Plus protocol. Luminescence was read using the Victor V plate reader.

Compound | cytotoxicity at 0.37 µM (Homo sapiens, HH, read-out: decrease in cell viability) | decrease in viability (HH cell line, 0.60 μM Targretin alone (FIG. 1A))
O=C(CCCCCCC(=O)Nc1ccccc1)NO [Vorinostat, N-Hydroxy-N′-phenyl octanediamide] | ~40% | –
C=C(c1ccc(C(=O)O)cc1)c1cc2c(cc1C)C(C)(C)CCC2(C)C [Targretin®, 4-[1-(5,6,7,8-Tetrahydro-3,5,5,8,8-pentamethyl-2-naphthalenyl)ethenyl]benzoic acid] | – | ~40%
